# Laboratory results taken from ChEMBL document CHEMBL3044800, “Synthesis, characterization and anticancer activity of 3-aza-analogues of DP-7” (Med Chem Res, 2012).
# Activity calls are given as the source filed them. The calls are words filed in the database; no cut-off is given here.
# System: L5178Y
# Assay: Antiproliferative activity against Mus musculus (mouse) L5178Y cells transfected with mdr1 (unknown origin) after 72 hr by MTT assay
# Assay type: functional, cell-based
row,Compound,Activity
1,CC1=C(C(=O)c2ccccc2)C(c2c[nH]c3ccccc23)NC(=O)N1 (stereo unspecified),Active
2,CC1=C(C(=O)c2ccccc2)C(c2cccc(Oc3ccccc3)c2)NC(=S)N1 (stereo unspecified),Active
3,COc1ccc(OC)c(C2NC(=O)NC(C)=C2C(=O)c2ccccc2)c1 (stereo unspecified),Active
4,CC1=C(C(=O)c2ccccc2)C(c2cccc3ccccc23)NC(=O)N1 (stereo unspecified),Active

# Molecular target: T1, ATP-dependent translocase ABCB1 (Homo sapiens, UniProt P08183)
# T1 sequence (P08183 whole entry): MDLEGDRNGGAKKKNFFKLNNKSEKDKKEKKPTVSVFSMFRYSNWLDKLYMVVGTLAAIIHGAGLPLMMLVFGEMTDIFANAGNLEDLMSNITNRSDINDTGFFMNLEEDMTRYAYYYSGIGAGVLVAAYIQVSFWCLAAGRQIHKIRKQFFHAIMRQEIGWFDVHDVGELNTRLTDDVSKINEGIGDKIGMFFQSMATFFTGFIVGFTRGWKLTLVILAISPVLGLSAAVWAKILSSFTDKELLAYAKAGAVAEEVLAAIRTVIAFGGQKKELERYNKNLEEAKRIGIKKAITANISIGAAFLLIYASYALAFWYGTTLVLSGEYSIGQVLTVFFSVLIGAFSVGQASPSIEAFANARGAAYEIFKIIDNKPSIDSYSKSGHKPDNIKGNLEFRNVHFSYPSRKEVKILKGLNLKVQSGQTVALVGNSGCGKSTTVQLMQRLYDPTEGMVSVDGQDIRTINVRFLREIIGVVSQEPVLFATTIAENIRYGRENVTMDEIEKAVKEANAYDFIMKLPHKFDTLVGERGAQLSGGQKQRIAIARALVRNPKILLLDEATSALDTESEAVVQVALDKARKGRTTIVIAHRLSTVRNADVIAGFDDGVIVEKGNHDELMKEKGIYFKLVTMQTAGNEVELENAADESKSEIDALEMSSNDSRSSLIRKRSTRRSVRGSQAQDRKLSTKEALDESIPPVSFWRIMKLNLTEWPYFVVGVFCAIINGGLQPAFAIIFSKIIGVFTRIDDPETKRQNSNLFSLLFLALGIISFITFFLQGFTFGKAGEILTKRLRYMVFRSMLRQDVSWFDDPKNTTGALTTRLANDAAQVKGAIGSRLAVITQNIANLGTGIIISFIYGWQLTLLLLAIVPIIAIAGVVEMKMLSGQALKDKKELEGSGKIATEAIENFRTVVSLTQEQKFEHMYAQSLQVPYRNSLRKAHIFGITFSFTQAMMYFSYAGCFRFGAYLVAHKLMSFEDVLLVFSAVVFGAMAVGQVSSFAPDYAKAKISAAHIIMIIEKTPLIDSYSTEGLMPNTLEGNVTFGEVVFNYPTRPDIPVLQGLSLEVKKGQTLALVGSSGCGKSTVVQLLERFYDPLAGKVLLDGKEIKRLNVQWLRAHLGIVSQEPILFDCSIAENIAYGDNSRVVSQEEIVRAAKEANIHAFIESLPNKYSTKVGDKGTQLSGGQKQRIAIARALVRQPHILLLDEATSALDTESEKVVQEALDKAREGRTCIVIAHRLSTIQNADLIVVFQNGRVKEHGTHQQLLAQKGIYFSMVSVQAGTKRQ
# Assay: Inhibition of MDR1 (unknown origin)-mediated rhodamine 123 uptake expressed in mouse L5178Y cells assessed as fluorescence activity ratio at 4 uM by flow cytometry relative to untreated control
# Assay type: cell-based
row,RLU,Compound
1,0.99,CC1=C(C(=O)c2ccccc2)C(/C=C/c2ccccc2)NC(=O)N1 (stereo unspecified)
2,0.82,CC1=C(C(=O)c2ccccc2)C(c2cc(Br)c(O)c(Br)c2)NC(=O)N1 (stereo unspecified)
3,1.26,CC1=C(C(=O)c2ccccc2)C(c2ccco2)NC(=O)N1 (stereo unspecified)
4,1.28,COc1ccc(C2NC(S)=NC(C)=C2C(=O)c2ccccc2)cc1OC (stereo unspecified)
5,0.93,COc1cc(C2NC(=S)NC(C)=C2C(=O)c2ccccc2)cc(OC)c1OC (stereo unspecified)
6,0.94,CC1=C(C(=O)c2ccccc2)C(c2ccccc2[N+](=O)[O-])NC(=O)N1 (stereo unspecified)
7,1.03,CC1=C(C(=O)c2ccccc2)C(c2ccccc2O)NC(=S)N1 (stereo unspecified)
8,1.15,COc1cc(OC)cc(C2NC(=O)NC(C)=C2C(=O)c2ccccc2)c1 (stereo unspecified)
9,0.96,COc1cc(C2NC(=O)NC(C)=C2C(=O)c2ccccc2)cc(OC)c1OC (stereo unspecified)
10,0.89,CC1=C(C(=O)c2ccccc2)C(c2cccc(Cl)c2)NC(=O)N1 (stereo unspecified)
11,1.21,CC1=C(C(=O)c2ccccc2)C(c2cccc(Cl)c2)NC(=S)N1 (stereo unspecified)
12,1.03,CC1=C(C(=O)c2ccccc2)C(c2ccc(Cl)cc2)NC(=S)N1 (stereo unspecified)
13,0.97,CC1=C(C(=O)c2ccccc2)C(c2cccc(O)c2)NC(=O)N1 (stereo unspecified)
14,78.56,CC1=C(C(=O)c2ccccc2)C(c2c[nH]c3ccccc23)NC(=O)N1 (stereo unspecified)
15,0.98,CC1=C(C(=O)c2ccccc2)C(c2ccccc2Cl)NC(=O)N1 (stereo unspecified)
16,1.17,CC1=C(C(=O)c2ccccc2)C(c2ccccc2Cl)NC(=S)N1 (stereo unspecified)
17,2.11,CC1=C(C(=O)c2ccccc2)C(c2ccc(C#N)cc2)NC(=O)N1 (stereo unspecified)
18,3.68,CC1=C(C(=O)c2ccccc2)C(c2cccc(Oc3ccccc3)c2)NC(=S)N1 (stereo unspecified)
19,1.11,CC1=C(C(=O)c2ccccc2)C(c2cccc(Br)c2)NC(=S)N1 (stereo unspecified)
20,36.85,COc1ccc(OC)c(C2NC(=O)NC(C)=C2C(=O)c2ccccc2)c1 (stereo unspecified)
21,1.15,CC1=C(C(=O)c2ccccc2)C(c2cccc(Br)c2)NC(=O)N1 (stereo unspecified)
22,1.39,CC1=C(C(=O)c2ccccc2)C(c2cccc([N+](=O)[O-])c2)NC(=O)N1 (stereo unspecified)
23,29.87,CC1=C(C(=O)c2ccccc2)C(c2cccc3ccccc23)NC(=O)N1 (stereo unspecified)
24,1.23,CC1=C(C(=O)c2ccccc2)C(c2cccc(Oc3ccccc3)c2)NC(=O)N1 (stereo unspecified)
25,0.88,CC1=C(C(=O)c2ccccc2)C(c2ccccc2[N+](=O)[O-])NC(=S)N1 (stereo unspecified)
26,4.57,CC1=C(C(=O)c2ccccc2)C(c2c3ccccc3cc3ccccc23)NC(=O)N1 (stereo unspecified)
27,0.96,CC1=C(C(=O)c2ccccc2)C(c2ccc(Cl)cc2)NC(=O)N1 (stereo unspecified)
28,1.28,CC1=C(C(=O)c2ccccc2)C(/C=C/c2ccccc2)NC(=S)N1 (stereo unspecified)
29,1.09,CC1=C(C(=O)c2ccccc2)C(c2ccccc2)NC(=O)N1 (stereo unspecified)
30,0.97,CC1=C(C(=O)c2ccccc2)C(c2ccccc2)NC(=S)N1 (stereo unspecified)

# Molecular target: Voltage-gated L-type calcium channel (Rattus norvegicus, UniProt P22002+Q02485+P27732)
# Assay: Inhibition of L-type calcium channel in Rattus norvegicus (rat) heart artery myocytes
# Assay type: tissue-based
row,IC50 [nM],Compound
1,1120,CC1=C(C(=O)c2ccccc2)C(c2cccc(Oc3ccccc3)c2)C(C(=O)c2ccccc2)=C(C)N1

# Molecular target: T1, ATP-dependent translocase ABCB1
# Assay: Inhibition of MDR1 (unknown origin)-mediated rhodamine 123 uptake expressed in mouse L5178Y cells assessed as fluorescence activity ratio at 21.99 uM by flow cytometry relative to untreated control
# Assay type: cell-based
row,RLU,Compound
1,4.26,COc1ccc(CCN(C)CCCC(C#N)(c2ccc(OC)c(OC)c2)C(C)C)cc1OC (stereo unspecified) [VERAPAMIL]
